Counter-ions that a name gives are not always drawn.
These compounds were tested against T1, DltA enzyme (Streptococcus agalactiae serotype III, UniProt Q8VM67) (assay: DltA HTS assays (luminescent / fluorescent), inhibition of DltA enzymatic activity in vitro). Details: IC50 (μM), Table 1; DltA inhibition, HTS assays of method 1.
T1 construct: His-tag (from pET100 vector) (N); made in house; host or cells: E. coli BL21 (DE3) Star
T1 sequence (Q8VM67 1-511): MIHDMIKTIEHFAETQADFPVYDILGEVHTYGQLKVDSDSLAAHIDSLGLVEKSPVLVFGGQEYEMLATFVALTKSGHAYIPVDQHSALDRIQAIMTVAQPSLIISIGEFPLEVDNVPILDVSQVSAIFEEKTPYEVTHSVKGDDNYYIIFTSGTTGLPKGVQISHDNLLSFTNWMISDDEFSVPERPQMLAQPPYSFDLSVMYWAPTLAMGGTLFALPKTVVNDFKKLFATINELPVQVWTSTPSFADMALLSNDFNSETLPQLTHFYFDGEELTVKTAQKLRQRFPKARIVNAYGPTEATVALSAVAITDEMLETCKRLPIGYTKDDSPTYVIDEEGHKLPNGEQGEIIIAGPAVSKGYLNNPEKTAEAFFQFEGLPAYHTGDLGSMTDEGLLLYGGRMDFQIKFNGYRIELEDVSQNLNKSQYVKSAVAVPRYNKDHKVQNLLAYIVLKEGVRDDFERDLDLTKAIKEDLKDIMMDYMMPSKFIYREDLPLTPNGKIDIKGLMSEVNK
Type: biochemical, S. agalactiae
Text: The compounds effect on DltA enzyme has been based on the measure of the inhibition of DltA activity in vitro.
To this end, a recombinant protein Dlta was expressed and purified after cloning of the gene of S. agalatiae as described below:
Methods 1: DltA HTS Assays
The assay described below makes use of dithiothreitol (DTT) instead of DltC as reactive thiol in the catalyzed reaction. In fact, the inventors have shown that DTT, but also Coenzyme A and N-Acetylcysteamine are all thiols able to replace efficiently DltC. In addition, contrary to the prior art, radioactivity is not used: all the assays are based either on luminescent ATP detection, or on fluorescent AMP detection. They are easily amenable to miniaturized formats and fast readouts as required by HTS.
The assay buffer “AB” contains 50 mM Hepes pH8.0, 10 mM MgCl2, 50 mM KCl, 0.012% Triton-X100. The following components are added in a white polystyrene Costar plate up to a final volume of 30 μL: 3 μL DMSO, or inhibitor dissolved in DMSO and 27 μL DltA enzyme and DTT in AB. After 30 min of pre-incubation at room temperature, 30 μL of Substrates mix in AB are added in each well to a final volume of 60 μL. This reaction mixture is then composed of 10 nM DltA (produced in house from S. agalactiae), 0.5 mM D-Alanine (Sigma), 0.5 μM ATP (Sigma) and 1 mM DTT (Biochemika) in assay buffer. After 90 min of incubation at room temperature, 30 μL of the revelation mix are added to a final volume of 90 μL, including the following constituents at the respective final concentrations: 2 nM luciferase (Sigma), 30 μM D-luciferin (Sigma), 100 μM N-acetylcysteamine (Aldrich). Luminescence intensity is immediately measured on an Analyst-HT (Molecular Devices) and converted into inhibition percentages. For IC50 (Inhibitory Concentration 50%) determinations, the inhibitor is added at 6 to 10 different concentrations, and the related inhibitions are fitted to a classical langmuir equilibrium model using XLFIT (IDBS).
The assay buffer “AB” contains 50 mM Hepes pH8.0, 10 mM MgCl2, 50 mM KCl, 0.012% Triton-X100. The following components are added in a black polystyrene Costar plate up to a final volume of 50 μL: 5 μL DMSO, or inhibitor dissolved in DMSO and 45 μL DltA enzyme and DTT in AB. After 30 min of pre-incubation at room temperature, 50 μL of Substrates-revelation mix in AB are added in each well to a final volume of 100 μL. This reaction mixture is then composed of 5 nM DltA (produced in house from S. agalactiae), 0.5 mM D-Alanine (Sigma), 10 μM ATP (Sigma), 1 mM DTT (Biochemika), 10 nM Adenylate kinase (produced in house), 5 u/mL Pyruvate Kinase (Sigma), 50 μM phosphoenolpyruvate (Sigma), 5 u/mL Lactate deshydrogenase (Sigma) and 3 μM NADH (Sigma) in assay buffer. Fluorescence intensity of NADH (λex=360 nm, λem=520 nm) is immediately measured kinetically by a Fluostar Optima (BMG). Inhibition percentages are derived from fitted initial velocities. For IC50 determinations, the inhibitor is added at 6 to 10 different concentrations, and the related inhibitions are fitted to a classical langmuir equilibrium model using XLFIT (IDBS). FIG. 2 represents the data obtained using this method.
The capacity of compounds to inhibit DltA enzymatic activity was assessed using the DltA HTS assays described in method 1.

`CS(=O)(=O)Nc1ccc(-c2cnc3c(NCCCO)nc4cc(C(F)(F)F)ccc4n23)cc1` [Example 23, N-{4-[4-(3-Hydroxy-propylamino)-7-trifluoromethyl-imidazo[1,2-a]quinoxalin-1-yl]phenyl}-methanesulfonamide Sodium salt] was tested, and the IC50 was 0.21 µM.

Same assay, conditions: Table 1; DltA inhibition, HTS assays of method 1; read-out: IC50

In order of rising IC50:
1. OCCCNc1nc2cc(C(F)(F)F)ccc2n2c(-c3[nH]ncc3Cl)cnc12 [Example 38, 3-({1-(4-chloro-1H-pyrazol-5-yl)-7-(trifluoromethyl)imidazo[1,2-a]quinoxalin-4-yl}amino)propan-1-ol]  0.0135 µM
2. OCCCNc1nc2cc(-c3ccccc3C(F)(F)F)ccc2n2c(-c3ccn[nH]3)cnc12 [Example 54, 3-{[1-(1H-pyrazol-5-yl)-7-(2-[trifluoromethyl]phenyl)imidazo[1,2-a]quinoxalin-4-yl]amino}propan-1-ol]  0.022 µM
3. Cc1n[nH]c(-c2cnc3c(NCCCO)nc4cc(OC(F)(F)F)ccc4n23)n1 [Example 55]  0.025 µM
4. OCCCNc1nc2cc(C(F)(F)F)ccc2n2c(-c3cc(-c4ccccc4)n[nH]3)cnc12 [Example 32, 3-({1-[3-phenyl-1H-pyrazol-5-yl]-7-(trifluoromethyl)imidazo[1,2-a]quinoxalin-4-yl}amino)propan-1-ol]  0.042 µM
5. Cc1cn[nH]c1-c1cnc2c(NCCCO)nc3cc(C(F)(F)F)ccc3n12 [Example 40, 3-({1-[4-methyl-1H-pyrazol-5-yl]-7-(trifluoromethyl)imidazo[1,2-a]quinoxalin-4-yl}amino)propan-1-ol]  0.057 µM
6. CS(=O)(=O)Nc1ccc(-c2cnc3c(NCCCO)nc4cc(C(F)(F)F)ccc4n23)cc1 [Example 12, N-{4-[4-(3-Hydroxy-propylamino)-7-trifluoromethyl-imidazo[1,2-a]quinoxalin-1-yl]-phenyl}-methanesulfonamide]  0.087 µM
7. CC(=O)Nc1cccc(-c2cnc3c(NCCCO)nc4cc(C(F)(F)F)ccc4n23)c1 [Example 8, N-{3-[4-(3-Hydroxy-propylamino)-7-trifluoromethyl-imidazo[1,2-a]quinoxalin-1-yl]-phenyl}-acetamide]  0.12 µM
8. OCCCNc1nc2cc(C(F)(F)F)ccc2n2c(-c3cc(O)n[nH]3)cnc12 [Example 37, 3-({1-(3-hydroxy-1H-pyrazol-5-yl)-7-(trifluoromethyl)imidazo[1,2-a]quinoxalin-4-yl}amino)propan-1-ol]  0.16 µM
9. CNC(=O)c1ccc(-c2cnc3c(NCCCO)nc4cc(C(F)(F)F)ccc4n23)cc1 [Example 15, 4-{4-[(3-hydroxypropyl)amino]-7-(trifluoromethyl)imidazo[1,2-a]quinoxalin-1-yl}-N-methylbenzamide]  0.2 µM
10. COc1cc(-c2cnc3c(NCCCO)nc4cc(C(F)(F)F)ccc4n23)ccc1N [Example 21]  0.27 µM
11. OCCCNc1nc2cc(C(F)(F)F)ccc2n2c(-c3cn[nH]c3)cnc12 [Example 17, 3-{[1-(1H-pyrazol-4-yl)-7-(trifluoromethyl)imidazo[1,2-a]quinoxalin-4-yl]amino}propan-1-ol]  0.51 µM
12. OCCCNc1nc2cc(-c3ccccc3C(F)(F)F)ccc2n2ccnc12 [Example 5, 3-({7-[2-(trifluoromethyl)phenyl]imidazo[1,2-a]quinoxalin-4-yl}amino)propan-1-ol]  0.56 µM
13. OCCCNc1nc2cc(C(F)(F)F)ccc2n2c(I)cnc12 [Example 3, 3-{[1-iodo-7-(trifluoromethyl)imidazo[1,2-a]quinoxalin-4-yl]amino}propan-1-ol]  0.62 µM
14. OCCCNc1nc2cc(C(F)(F)F)ccc2n2c(-c3ccccc3)cnc12 [Example 11, 3-{[1-phenyl-7-(trifluoromethyl)imidazo[1,2-a]quinoxalin-4-yl]amino}propan-1-ol]  0.73 µM
15. OCCCNc1nc2cc(C(F)(F)F)c(NCc3ccccc3)cc2n2ccnc12 [Example 56, 3-{[8-(benzylamino)-7-(trifluoromethyl)imidazo[1,2-a]quinoxalin-4-yl]amino}propan-1-ol]  0.81 µM
16. Nc1ncc(-c2cnc3c(NCCCO)nc4cc(C(F)(F)F)ccc4n23)cn1 [Example 20, 3-{[1-(2-aminopyrimidin-5-yl)-7-(trifluoromethyl)imidazo[1,2-a]quinoxalin-4-yl]amino}propan-1-ol]  0.86 µM
17. CNC(=O)NCc1cnc2c(NCCCO)nc3cc(C(F)(F)F)ccc3n12 [Example 43, 1-({4-[(3-hydroxypropyl)amino]-7-(trifluoromethyl)imidazo[1,2-a]quinoxalin-1-yl}methyl)-3-methylurea]  1.2 µM
18. OCCCNc1nc2cc(OC(F)(F)F)ccc2n2ccnc12 [Example 7, 3-{[7-(trifluoromethoxy)imidazo[1,2-a]quinoxalin-4-yl]amino}propan-1-ol]  2.2 µM
19. OCCCNc1nc2cc(C(F)(F)F)ccc2n2c(Br)cnc12 [Example 2, 3-{[1-bromo-7-(trifluoromethyl)imidazo[1,2-a]quinoxalin-4 yl]amino}propan-1-ol]  2.5 µM
20. OCCCNc1nc2cc(C(F)(F)F)ccc2n2ccnc12 [Example 1, 3-{[7-(trifluoromethyl)imidazo[1,2-a]quinoxalin-4-yl]amino}propan-1-ol]  3.2 µM
21. OCCCNc1nc2cc(C(F)(F)F)ccc2n2c(-c3ncc[nH]3)cnc12 [Example 46, 3-{[1-(1H-imidazol-2-yl)-7-(trifluoromethyl)imidazo[1,2-a]quinoxalin-4-yl]amino}propan-1-ol]  3.5 µM
22. COc1ccc(-n2cnc3c(NCCCO)nc4cc(C(F)(F)F)ccc4c32)cc1 [Example 24, 3-[1-(4-Methoxy-phenyl)-7-trifluoromethyl-1H-imidazo[4,5-c]quinolin-4-ylamino]-propan-1-ol]  3.9 µM
23. O=Cc1cnc2c(NCCCO)nc3cc(C(F)(F)F)ccc3n12 [Example 41, 4-[(3-hydroxypropyl)amino]-7-(trifluoromethyl)imidazo[1,2-a]quinoxaline-1-carbaldehyde]  4.6 µM
24. O=C(O)c1cc(-c2cnc3c(NCCCO)nc4cc(C(F)(F)F)ccc4n23)[nH]n1 [Example 48, 5-{4-[(3-hydroxypropyl)amino]-7-(trifluoromethyl)imidazo[1,2-a]quinoxalin-1-yl}-1H-pyrazole-3-carboxylic acid]  5 µM
25. OCCCNc1nc2cc(C(F)(F)F)ccc2n2c(CNCc3ccccc3)cnc12 [Example 44, 3-({1-[(benzylamino)methyl]-7-(trifluoromethyl)imidazo[1,2-a]quinoxalin-4-yl}amino)propan-1-ol]  6.1 µM
26. Cn1cnc2c(NCCCO)nc3cc(C(F)(F)F)ccc3c21 [Example 25, 3-{[1-methyl-7-(trifluoromethyl)-1H-imidazo[4,5-c]quinolin-4-yl]amino}propan-1-ol]  17 µM
27. OCCCNc1nc2cc(F)c(F)cc2n2ccnc12 [Example 57, 3-[(7,8-difluoroimidazo[1,2-a]quinoxalin-4-yl)amino]propan-1-ol]  57 µM

Reference: patent US8513250B2 (Laboratoire Biodim, priority 2007, dated 2013)
